The text below walks through data of patent US11358957B2, “Microbiocidal oxadiazole derivatives” (SYNGENTA PARTICIPATIONS AG, priority 2017, dated 2022).

A value given as a limit tells only on which side of the number the result lay.

Data set [1] has as its system Puccinia recondita f. Sp. Tritici. Briefly: Fungicidal activity against Puccinia recondita f. sp. tritici / wheat / leaf disc preventative (brown rust). It counts as in vivo. To be noted: foliar, 200 ppm in the applied formulation, wheat leaf segments cv. Kanzler, preventative (inoculated 1 day after application), compared to untreated, read-out: disease control. A digest of the protocol: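 Segments of wheat cv. Kanzler on water agar were sprayed with compound and inoculated with spores 1 day later. They were kept at 19 °C, 75% rh and 12 h light/12 h dark. Percent disease control versus untreated was scored 7–9 days after application; compounds were tested at 200 ppm.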

Data set [2] deals with Glomerella lagenarium (Colletotrichum lagenarium). Briefly: Fungicidal activity against Glomerella lagenarium (Colletotrichum lagenarium) liquid culture / cucumber / preventative (anthracnose). It is filed as cell-based. As to conditions: Colletotrichum orbiculare; 20 ppm in the applied formulation; liquid culture (PDB), inhibition of growth measured photometrically 3 to 4 days after application; compared to untreated; read-out: disease control. In a few lines: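 Conidia from cryogenic storage mixed into potato dextrose broth and added to compound in DMSO in microtiter plates. Incubated at 24° C.; growth inhibition read photometrically 3 to 4 days after application. Disease control expressed relative to untreated control, with compound at 20 ppm in the applied formulation.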

Data set [3] relates to Puccinia recondita f. Sp. Tritici. The data set is described as follows: Fungicidal activity against Puccinia recondita f. sp. tritici / wheat / leaf disc curative (brown rust). To be noted: foliar, 24 h, 200 ppm in the applied formulation, wheat leaf segments cv. Kanzler, curative (applied 1 day after inoculation), compared to untreated, read-out: disease control. It is filed as in vivo. A digest of the protocol: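 Wheat leaf segments (cv. Kanzler) on agar were inoculated with brown rust spores, kept dark at 19 °C and 75% RH, then sprayed 1 day later with compound (DMSO stock diluted in 0.025% Tween20). Under 12 h light/12 h dark at 19 °C, percent disease control versus untreated was scored 6–8 days after application; 200 ppm applied.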

The test system of a further data set is Phakopsora pachyrhizi. Briefly: Fungicidal activity against Phakopsora pachyrhizi / soybean / leaf disc preventative (Asian soybean rust). It counts as in vivo. As to conditions: foliar, 200 ppm in the applied formulation, soybean leaf disks, compared to untreated, read-out: disease control. How it is done: Leaf disks or leaf segments of various plant species are cut from plants grown in a greenhouse. The cut leaf disks or segments are placed in multiwell plates (24-well format) onto water agar. The leaf disks are sprayed with a test solution before (preventative) or after (curative) inoculation. Compounds to be tested are prepared as DMSO solutions (max. 10 mg/mL) which are diluted to the appropriate concentration with 0.025% Tween20 just before spraying. The inoculated leaf disks or segments are incubated under defined conditions (temperature, relative humidity, light, etc.) according to the respective test system. A single evaluation of disease level is carried out 3 to 14 days after inoculation, depending on the pathosystem. Percent disease control relative to the untreated check leaf disks or segments is then calculated. Soybean leaf disks are placed on water agar in multiwell plates (24-well format) and sprayed with the formulated test compound diluted in water. One day after application leaf discs are inoculated by spraying a spore suspension on the lower leaf surface. After an incubation period in a climate cabinet of 24-36 hours in darkness at 20° C. and 75% rh leaf disc are kept at 20° C. with 12 h light/day and 75% rh. The activity of a compound is assessed as percent disease control compared to untreated when an appropriate level of disease damage appears in untreated check leaf disks (12 to 14 days after application). The following compounds at 200 ppm in the applied formulation give at least 80% disease control in this test when compared to untreated control leaf disks under the same conditions, which show extensive disease development.

In the case of `COc1ccc2ncn(Cc3ccc(-c4noc(C(F)(F)F)n4)s3)c2c1` [Compound 1.23, 3-[5-[(6-methoxybenzimidazol-1-yl)methyl]-2-thienyl]-5-(trifluoromethyl)-1,2,4-oxadiazole], the pest or weed control at 200 ppm (in data set [1]; in data set [3]; in the data set with Phakopsora pachyrhizi) was at least 80% each time. In addition, the inhibition of growth at 20 ppm in data set [2] is at least 80%.
As for `COc1ccc2c(c1)ncn2Cc1ccc(-c2noc(C(F)(F)F)n2)s1` [Compound 1.24, 3-[5-[(5-methoxybenzimidazol-1-yl)methyl]-2-thienyl]-5-(trifluoromethyl)-1,2,4-oxadiazole], the pest or weed control at 200 ppm (in data set [1]; in data set [3]; with Phakopsora pachyrhizi) was at least 80% each time. The inhibition of growth at 20 ppm in data set [2] was at least 80%.
On to `FC(F)(F)c1nc(-c2ccc(Cn3cnc4ccccc43)s2)no1` [Compound 1.25, 3-[5-(benzimidazol-1-ylmethyl)-2-thienyl]-5-(trifluoromethyl)-1,2,4-oxadiazole], for which the pest or weed control at 200 ppm (in data set [1]; in data set [3]; with Phakopsora pachyrhizi) was at least 80% each time. In data set [2], the inhibition of growth at 20 ppm was at least 80%.
In turn, `CCOC(=O)c1cnn(Cc2cc(-c3noc(C(F)(F)F)n3)cs2)c1` [Compound 1.26, ethyl 1-[[4-[5-(trifluoromethyl)-1,2,4-oxadiazol-3-yl]-2-thienyl]methyl]pyrazole-4-carboxylate] yielded a melting point of 119 to 123 °C. Besides, the pest or weed control at 200 ppm in data set [1] was at least 80%. For the same molecule, in data set [2], the inhibition of growth at 20 ppm is at least 80%.
For the molecule `CCOC(=O)c1cnn(C(C)c2ccc(-c3noc(C(F)(F)F)n3)s2)c1` (centres unmarked) [Compound 1.30, ethyl 1-[1-[5-[5-(trifluoromethyl)-1,2,4-oxadiazol-3-yl]-2-thienyl]ethyl]pyrazole-4-carboxylate], the pest or weed control at 200 ppm (in data set [1]; in data set [3]; with Phakopsora pachyrhizi) was at least 80% in each case. Further, the inhibition of growth at 20 ppm in data set [2] was at least 80%.
Consider `Cc1cccc(=O)n1C(C)c1ccc(-c2noc(C(F)(F)F)n2)s1` (centres unmarked) [Compound 1.33, 6-methyl-1-[1-[5-[5-(trifluoromethyl)-1,2,4-oxadiazol-3-yl]-2-thienyl]ethyl]pyridin-2-one], for which the pest or weed control at 200 ppm (in data set [1]; in data set [3]; in the data set on Phakopsora pachyrhizi) was at least 80% each time. Besides, the inhibition of growth at 20 ppm in data set [2] is at least 80%.
As to `CC(c1ccc(-c2noc(C(F)(F)F)n2)s1)N1CCCCC1=O` (centres unmarked) [Compound 1.34, 1-[1-[5-[5-(trifluoromethyl)-1,2,4-oxadiazol-3-yl]-2-thienyl]ethyl]piperidin-2-one], the pest or weed control at 200 ppm (in data set [1]; in data set [3]; in the data set on Phakopsora pachyrhizi) was at least 80% throughout. For the same molecule, in data set [2], the inhibition of growth at 20 ppm is at least 80%.
On to `O=C(O)c1cnn(Cc2ccc(-c3noc(C(F)(F)F)n3)s2)c1` [Compound 1.36, 1-[[5-[5-(trifluoromethyl)-1,2,4-oxadiazol-3-yl]-2-thienyl]methyl]pyrazole-4-carboxylic acid], for which the melting point fell in the range of 182 to 185 °C. Moreover, the pest or weed control at 200 ppm in data set [1] was at least 80%. In data set [2], the inhibition of growth at 20 ppm is at least 80%. Besides, the pest or weed control at 200 ppm in data set [3] is at least 80%.
Regarding `CC(c1ccc(-c2noc(C(F)(F)F)n2)s1)n1cc(C(=O)O)cn1` (centres unmarked) [Compound 1.37, 1-[1-[5-[5-(trifluoromethyl)-1,2,4-oxadiazol-3-yl]-2-thienyl]ethyl]pyrazole-4-carboxylic acid], the melting point was 133 to 143 °C. Moreover, the pest or weed control at 200 ppm in data set [1] was at least 80%. Besides, the inhibition of growth at 20 ppm in data set [2] was at least 80%. In addition, the pest or weed control at 200 ppm in data set [3] is at least 80%.
With `CCOC(=O)c1ncnn1Cc1ccc(-c2noc(C(F)(F)F)n2)s1` [Compound 1.41, ethyl 2-[[5-[5-(trifluoromethyl)-1,2,4-oxadiazol-3-yl]-2-thienyl]methyl]-1,2,4-triazole-3-carboxylate], the pest or weed control at 200 ppm (in data set [1]; in data set [3]; in the data set on Phakopsora pachyrhizi) was at least 80% throughout. Moreover, the inhibition of growth at 20 ppm in data set [2] is at least 80%.
Turning to `CCCOC(=O)c1ncnn1Cc1ccc(-c2noc(C(F)(F)F)n2)s1` [Compound 1.44, propyl 2-[[5-[5-(trifluoromethyl)-1,2,4-oxadiazol-3-yl]-2-thienyl]methyl]-1,2,4-triazole-3-carboxylate], the pest or weed control at 200 ppm (in data set [1]; in data set [3]; in the data set on Phakopsora pachyrhizi) was at least 80% each time. For the same molecule, the inhibition of growth at 20 ppm in data set [2] is at least 80%.
As for `CCOC(=O)c1ccnn1Cc1ccc(-c2noc(C(F)(F)F)n2)s1` [Compound 1.45, ethyl 2-[[5-[5-(trifluoromethyl)-1,2,4-oxadiazol-3-yl]-2-thienyl]methyl]pyrazole-3-carboxylate], the pest or weed control at 200 ppm (in data set [1]; in data set [3]; in the data set on Phakopsora pachyrhizi) was at least 80% each time. Besides, the inhibition of growth at 20 ppm in data set [2] was at least 80%.
Consider `CCCOC(=O)c1ccnn1Cc1ccc(-c2noc(C(F)(F)F)n2)s1` [Compound 1.47, propyl 2-[[5-[5-(trifluoromethyl)-1,2,4-oxadiazol-3-yl]-2-thienyl]methyl]pyrazole-3-carboxylate], for which the pest or weed control at 200 ppm (in data set [1]; in data set [3]; in the data set with Phakopsora pachyrhizi) was at least 80% throughout. The inhibition of growth at 20 ppm in data set [2] is at least 80%.
For the molecule `CN(C)C(=O)c1ncnn1Cc1ccc(-c2noc(C(F)(F)F)n2)s1` [Compound 1.50, N,N-dimethyl-2-[[5-[5-(trifluoromethyl)-1,2,4-oxadiazol-3-yl]-2-thienyl]methyl]-1,2,4-triazole-3-carboxamide], the pest or weed control at 200 ppm (in data set [1]; in data set [3]; in the data set on Phakopsora pachyrhizi) was at least 80% in each case. Besides, the inhibition of growth at 20 ppm in data set [2] was at least 80%.
For the molecule `COC(=O)c1ccn(Cc2ccc(-c3noc(C(F)(F)F)n3)s2)n1` [Compound 1.53, methyl 1-[[5-[5-(trifluoromethyl)-1,2,4-oxadiazol-3-yl]-2-thienyl]methyl]pyrazole-3-carboxylate], the pest or weed control at 200 ppm (in data set [1]; in data set [3]; with Phakopsora pachyrhizi) was at least 80% each time. The inhibition of growth at 20 ppm in data set [2] was at least 80%.
For `COC(=O)c1ccnn1Cc1ccc(-c2noc(C(F)(F)F)n2)s1` [Compound 1.54, methyl 2-[[5-[5-(trifluoromethyl)-1,2,4-oxadiazol-3-yl]-2-thienyl]methyl]pyrazole-3-carboxylate], the pest or weed control at 200 ppm (in data set [1]; in data set [3]; in the data set on Phakopsora pachyrhizi) was at least 80% in each case. The inhibition of growth at 20 ppm in data set [2] was at least 80%.
Take `COC(=O)c1ncnn1Cc1ccc(-c2noc(C(F)(F)F)n2)s1` [Compound 1.55, methyl 2-[[5-[5-(trifluoromethyl)-1,2,4-oxadiazol-3-yl]-2-thienyl]methyl]-1,2,4-triazole-3-carboxylate]: the pest or weed control at 200 ppm (in data set [1]; in data set [3]; in the data set on Phakopsora pachyrhizi) was at least 80% throughout. Also, the inhibition of growth at 20 ppm in data set [2] is at least 80%.
For `O=C(O)c1ncn(Cc2ccc(-c3noc(C(F)(F)F)n3)s2)n1` [Compound 1.63, 1-[[5-[5-(trifluoromethyl)-1,2,4-oxadiazol-3-yl]-2-thienyl]methyl]-1,2,4-triazole-3-carboxylic acid], the melting point was in the range of 210 to 220 °C. The pest or weed control at 200 ppm in data set [1] was at least 80%. In data set [3], the pest or weed control at 200 ppm was at least 80%.
On to `O=C(O)c1ccnn1Cc1ccc(-c2noc(C(F)(F)F)n2)s1` [Compound 1.64, 2-[[5-[5-(trifluoromethyl)-1,2,4-oxadiazol-3-yl]-2-thienyl]methyl]pyrazole-3-carboxylic acid], for which the melting point fell in the range of 145 to 165 °C. Also, the pest or weed control at 200 ppm in data set [1] was at least 80%. For the same molecule, in data set [2], the inhibition of growth at 20 ppm is at least 80%. For the same molecule, the pest or weed control at 200 ppm in data set [3] was at least 80%.
